According to ChEMBL document CHEMBL4680201, “Design, synthesis, and pharmacological evaluation of 4- or 6-phenyl-pyrimidine derivatives as novel and selective Janus kinase 3 inhibitors” (Eur J Med Chem, 2020):

Key:
Mus musculus = test: Immunosuppressive activity in po dosed Balb/c mouse model of oxazolone-induced delayed type hypersensitivity assessed as reduction in ear swelling measured after 7 days; type: functional, organism-based; details: time 7.0 day
[1] = Toxicity in Balb/c mouse model of oxazolone-induced delayed type hypersensitivity assessed as change in microscopic examination up to 30 mg/kg, po; type: organism-based; details: in vivo
[2] = target: Non-receptor tyrosine-protein kinase TYK2 (Homo sapiens, UniProt P29597); test: Inhibition of recombinant human N-terminal GST-tagged TYK2 cytoplasmic domain (833 to 1187 residues) expressed in baculovirus expression system using TK-substrate-biotin preincubated for 5 mins followed by substrate addition and measured after 30 mins by HTRF assay
Sequence of Non-receptor tyrosine-protein kinase TYK2 (P29597 whole entry, the tested form may be a part): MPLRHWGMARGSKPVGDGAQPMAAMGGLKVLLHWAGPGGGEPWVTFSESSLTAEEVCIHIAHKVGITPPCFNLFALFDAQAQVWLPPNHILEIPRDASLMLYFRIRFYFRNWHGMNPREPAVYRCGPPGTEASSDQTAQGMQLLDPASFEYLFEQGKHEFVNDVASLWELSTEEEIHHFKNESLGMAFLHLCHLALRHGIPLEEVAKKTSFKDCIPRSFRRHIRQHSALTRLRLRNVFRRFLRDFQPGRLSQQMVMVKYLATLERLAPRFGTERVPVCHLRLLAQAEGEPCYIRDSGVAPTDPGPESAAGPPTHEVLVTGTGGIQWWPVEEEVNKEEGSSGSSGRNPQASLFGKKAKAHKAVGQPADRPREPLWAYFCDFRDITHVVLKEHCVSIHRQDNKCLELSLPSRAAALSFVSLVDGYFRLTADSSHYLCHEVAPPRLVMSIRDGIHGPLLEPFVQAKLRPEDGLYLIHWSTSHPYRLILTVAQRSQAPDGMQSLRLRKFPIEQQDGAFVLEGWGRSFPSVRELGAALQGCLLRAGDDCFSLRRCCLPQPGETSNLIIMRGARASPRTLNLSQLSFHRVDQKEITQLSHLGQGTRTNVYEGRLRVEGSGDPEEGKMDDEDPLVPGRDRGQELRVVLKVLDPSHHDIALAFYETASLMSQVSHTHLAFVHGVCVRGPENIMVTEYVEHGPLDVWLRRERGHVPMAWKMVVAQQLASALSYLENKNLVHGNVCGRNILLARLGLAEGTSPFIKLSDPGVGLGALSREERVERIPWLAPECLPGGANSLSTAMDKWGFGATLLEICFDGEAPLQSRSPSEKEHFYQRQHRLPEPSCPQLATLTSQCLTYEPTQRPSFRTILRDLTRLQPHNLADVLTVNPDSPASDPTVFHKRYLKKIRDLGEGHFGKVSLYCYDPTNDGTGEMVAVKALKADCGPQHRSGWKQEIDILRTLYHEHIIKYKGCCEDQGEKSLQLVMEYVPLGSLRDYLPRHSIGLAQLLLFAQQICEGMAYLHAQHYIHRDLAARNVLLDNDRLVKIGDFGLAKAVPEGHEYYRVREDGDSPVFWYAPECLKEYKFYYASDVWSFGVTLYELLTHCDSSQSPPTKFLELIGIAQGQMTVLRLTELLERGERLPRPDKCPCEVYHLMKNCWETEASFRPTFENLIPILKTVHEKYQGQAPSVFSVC

[3] = target: T1, Tyrosine-protein kinase JAK3 (Mus musculus) (UniProt Q62137); test: Inhibition of JAK3 in anti-CD3/-CD28 coated mouse T cells assessed as reduction in IL2-induced STAT5 phosphorylation preincubated for 1 hr followed by IL2 stimulation and measured after 30 mins by Western blot analysis; details: T cell
T1 sequence (whole entry): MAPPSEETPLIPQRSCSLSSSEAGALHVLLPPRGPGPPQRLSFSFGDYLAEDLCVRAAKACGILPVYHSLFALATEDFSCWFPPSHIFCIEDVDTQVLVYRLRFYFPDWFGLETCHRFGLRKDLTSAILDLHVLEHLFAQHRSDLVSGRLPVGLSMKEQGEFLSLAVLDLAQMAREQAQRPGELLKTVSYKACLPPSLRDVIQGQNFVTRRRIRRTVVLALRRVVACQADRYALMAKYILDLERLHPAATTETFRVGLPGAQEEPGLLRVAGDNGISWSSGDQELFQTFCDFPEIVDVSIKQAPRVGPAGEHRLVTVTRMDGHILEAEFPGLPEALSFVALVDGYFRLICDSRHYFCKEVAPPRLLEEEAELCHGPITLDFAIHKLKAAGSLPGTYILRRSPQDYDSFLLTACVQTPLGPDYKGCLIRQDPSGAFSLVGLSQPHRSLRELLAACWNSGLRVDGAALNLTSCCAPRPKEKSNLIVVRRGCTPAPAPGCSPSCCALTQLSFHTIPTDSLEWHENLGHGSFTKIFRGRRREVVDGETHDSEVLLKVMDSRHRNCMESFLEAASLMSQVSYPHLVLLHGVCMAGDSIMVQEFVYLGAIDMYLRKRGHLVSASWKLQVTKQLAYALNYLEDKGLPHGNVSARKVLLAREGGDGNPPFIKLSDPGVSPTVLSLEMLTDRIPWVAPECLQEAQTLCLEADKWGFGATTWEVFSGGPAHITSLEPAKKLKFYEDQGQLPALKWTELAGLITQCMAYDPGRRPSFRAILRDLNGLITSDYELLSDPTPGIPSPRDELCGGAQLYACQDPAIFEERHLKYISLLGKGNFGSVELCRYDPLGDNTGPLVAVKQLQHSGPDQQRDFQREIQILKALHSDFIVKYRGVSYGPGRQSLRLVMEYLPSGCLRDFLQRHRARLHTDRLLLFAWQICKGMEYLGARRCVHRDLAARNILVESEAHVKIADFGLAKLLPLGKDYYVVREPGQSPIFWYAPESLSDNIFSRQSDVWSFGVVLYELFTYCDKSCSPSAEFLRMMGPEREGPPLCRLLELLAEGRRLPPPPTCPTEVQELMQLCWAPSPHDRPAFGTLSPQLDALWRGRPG

[4] = target: T2, ITK (Tyrosine-protein kinase ITK/TSK) (Homo sapiens, UniProt Q08881); test: Inhibition of recombinant human GST-tagged full length ITK expressed in baculovirus expression system at 100 nM using Tyr01 peptide as substrate incubated for 1 hr by Z'lyte assay relative to control; details: probe Tyr01 peptide
T2 sequence (Q08881 whole entry): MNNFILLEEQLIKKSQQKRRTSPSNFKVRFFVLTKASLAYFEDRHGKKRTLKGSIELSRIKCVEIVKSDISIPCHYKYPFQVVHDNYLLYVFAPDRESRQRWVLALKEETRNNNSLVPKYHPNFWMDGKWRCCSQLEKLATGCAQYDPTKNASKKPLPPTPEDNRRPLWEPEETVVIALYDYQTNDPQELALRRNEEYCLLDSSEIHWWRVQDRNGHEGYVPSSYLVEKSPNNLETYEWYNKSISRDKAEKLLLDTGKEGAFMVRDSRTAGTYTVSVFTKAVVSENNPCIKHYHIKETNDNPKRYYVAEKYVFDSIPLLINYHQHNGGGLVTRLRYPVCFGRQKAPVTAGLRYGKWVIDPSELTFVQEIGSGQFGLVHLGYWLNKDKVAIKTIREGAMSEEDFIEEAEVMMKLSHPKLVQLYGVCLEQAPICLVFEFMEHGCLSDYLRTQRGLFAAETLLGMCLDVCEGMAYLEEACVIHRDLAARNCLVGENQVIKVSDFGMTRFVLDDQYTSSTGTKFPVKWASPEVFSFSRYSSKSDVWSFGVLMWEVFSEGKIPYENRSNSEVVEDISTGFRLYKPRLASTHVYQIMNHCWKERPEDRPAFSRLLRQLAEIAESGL

[5] = Apparent volume of distribution in ICR mouse at 10 mg/kg, iv administered as single dose by LC-MS/MS analysis; type: ADME, organism-based; details: in vivo, read-out: Vz
[6] = Apparent volume of distribution in ICR mouse at 30 mg/kg, po administered as single dose via gavage by LC-MS/MS analysis; type: ADME, organism-based; details: in vivo

In the case of C=CC(=O)Nc1ccc(-c2ccnc(Nc3ccc(N4CCOCC4)cc3)n2)cc1, the Activity (Mus musculus) is reported as “Dose-dependent effect”, the Activity [1] is reported as “Non-Toxic” and the IC50 [2] is reported as 2780 nM. For the same compound, the inhibition [3] was “Dose-dependent effect”, the inhibition at 1 h, 0.1 µM [4] was 2.3% and the Vd [5] was 8.36 L/kg. It also gave a Vz [6] of 220.42 L/kg.
